The values that follow come from publication PMC6069857, “Effects of novel HDAC inhibitors on urothelial carcinoma cells” (Clinical Epigenetics, 2018).

One series deals with UM-UC-3-LV. The series can be described thus: MTT viability assay (CC50). Format: cell-based, human. The settings on record: UM-UC-3-LV (empty vector), 72 h. As for the experimental part: (§1) HDAC4 cDNA from the pcDNA-HDAC4-FLAG plasmid kindly provided by Tso-Pang Yao (Addgene plasmid # 30485) was cloned into the lentiviral vector puc2CL12IPwo using standard techniques, thereby creating the vector puc2CL12IPwo-HDAC4-FLAG (Additional file 1: Figure S1). Integrity of the HDAC4 coding sequence was verified by sequencing. Lentivirus production and cell transduction were performed as previously described. In brief, to produce replication-deficient lentiviruses, HEK-293T cells were transfected with helper plasmid expression construct (pCD/NL-BH [35]), envelope vector (pczVSV-G [36]), and the vector plasmids puc2CL12IPwo or puc2CL12IPwo-HDAC4-FLAG. Viral particles were harvested 48 h after transfection and used to transduce VM-CUB1 and UM-UC-3 cells using 8 μg/ml polybrene (Sigma Aldrich, St. Louis, MO). Twenty-four hours after transduction, the supernatant containing viral particles was removed and the transduced cells were selected with 4 (VM-CUB1) or 1 (UM-UC-3) μg/ml puromycin (Invitrogen, Carlsbad, CA) for 7 days. Stable overexpression of HDAC4 was confirmed by Western blot analysis of cells from several passages.
(§2) For the determination of cellular mean cytotoxic concentration (CC50), UCCs, non-malignant control cells, and HDAC4-overexpressing clones were seeded in a 96-well format and treated once with a range of defined concentrations of the HDAC inhibitors. After 72 h, viability was quantified by NAD(P)H-dependent 3-(4,5-dimethylthiazol-2-yl)-2,5-diphenyltetrazolium bromide dye reduction assay (MTT, Sigma Aldrich, St. Louis, MO). CC50 values were estimated from three independent experiments by non-linear regression analysis (four-parameter logistic equation) using Prism 4.0 (Graph Pad) or Origin 8.0 (Origin Lab, Northhampton, GB). For time-dependent proliferation experiments, viability of untreated or inhibitor-treated cells was measured after 24, 48, and 72 h.
(In general: Tetrazolium assays rely on reduction of a dye to a coloured formazan, in cell work by metabolically active cells.)

Another series relates to UM-UC-3-HDAC4. The series can be described thus: MTT viability assay (CC50). It counts as cell-based, human. The conditions noted are these: UM-UC-3-HDAC4 (HDAC4-overexpressing), 72 h. How it is done:
as §1, §2

The test system of a further series is VM-CUB1-HDAC4. Put plainly: MTT viability assay (CC50). Format: cell-based, human. The settings on record: VM-CUB-HDAC4 (HDAC4-overexpressing), 72 h. As for the experimental part:
as §1, §2

The next series deals with VM-CUB1-LV. The series can be described thus: MTT viability assay (CC50). It counts as cell-based, human. The conditions noted are these: VM-CUB1-LV (empty vector), 72 h. How it is done: as §1, §2
Another series has as its target HDAC1 (Homo sapiens, UniProt Q13547). More on the design: purchased Reaction Biology Corp. (Malvern, PA). The settings on record: previously reported; given for HDAC1/2 together; cited from earlier work.
In series [1] the test system is UC cell lines (VM-CUB1, UM-UC-3, 639-V). Put plainly: MTT viability assay, UC cell lines taken together. It counts as cell-based, human. The settings on record: across VM-CUB1, UM-UC-3, 639-V; MTT, 72 h. How it is done: Further experiments were performed in VM-CUB1 and UM-UC-3 cells overexpressing HDAC4 (see below). Standard UCCs were obtained from the DSMZ (Braunschweig, Germany) and Dr. H.B. Grossmann HB (Houston, USA). For comparison, we investigated the spontaneously immortalized normal human bladder cell line HBLAK (provided by CELLnTEC, Bern, Switzerland) and the immortalized human embryonic kidney cell line HEK-293 (provided by Dr. V. Kolb-Bachofen, Duesseldorf, Germany). Cells were cultured and treated in DMEM GlutaMAX-I (Gibco, Darmstadt, Germany; UCCs and HEK-293) supplemented with 10% fetal calf serum (Biochrom, Berlin, Germany), except for HBLAK cultured in CnT-Prime Epithelial Culture Medium (CELLnTEC, Bern, Switzerland; HBLAK), at 37 °C and 5% CO2. […]
For the determination of cellular mean cytotoxic concentration (CC50), UCCs, non-malignant control cells, and HDAC4-overexpressing clones were seeded in a 96-well format and treated once with a range of defined concentrations of the HDAC inhibitors. After 72 h, viability was quantified by NAD(P)H-dependent 3-(4,5-dimethylthiazol-2-yl)-2,5-diphenyltetrazolium bromide dye reduction assay (MTT, Sigma Aldrich, St. Louis, MO). […] For time-dependent proliferation experiments, viability of untreated or inhibitor-treated cells was measured after 24, 48, and 72 h.

A further series deals with T1, HDAC4 (Homo sapiens, UniProt P56524).
T1 construct: purchased Reaction Biology Corp. (Malvern, PA)
The conditions noted are these: older assays, given for HDAC4/5 together; cited from earlier work.

Molecules are shown by their SMILES.

For orientation: CC50 means the concentration that lowers cell viability or growth by half. Lower therefore signals harm at low concentration.

T1 sequence (P56524 whole entry): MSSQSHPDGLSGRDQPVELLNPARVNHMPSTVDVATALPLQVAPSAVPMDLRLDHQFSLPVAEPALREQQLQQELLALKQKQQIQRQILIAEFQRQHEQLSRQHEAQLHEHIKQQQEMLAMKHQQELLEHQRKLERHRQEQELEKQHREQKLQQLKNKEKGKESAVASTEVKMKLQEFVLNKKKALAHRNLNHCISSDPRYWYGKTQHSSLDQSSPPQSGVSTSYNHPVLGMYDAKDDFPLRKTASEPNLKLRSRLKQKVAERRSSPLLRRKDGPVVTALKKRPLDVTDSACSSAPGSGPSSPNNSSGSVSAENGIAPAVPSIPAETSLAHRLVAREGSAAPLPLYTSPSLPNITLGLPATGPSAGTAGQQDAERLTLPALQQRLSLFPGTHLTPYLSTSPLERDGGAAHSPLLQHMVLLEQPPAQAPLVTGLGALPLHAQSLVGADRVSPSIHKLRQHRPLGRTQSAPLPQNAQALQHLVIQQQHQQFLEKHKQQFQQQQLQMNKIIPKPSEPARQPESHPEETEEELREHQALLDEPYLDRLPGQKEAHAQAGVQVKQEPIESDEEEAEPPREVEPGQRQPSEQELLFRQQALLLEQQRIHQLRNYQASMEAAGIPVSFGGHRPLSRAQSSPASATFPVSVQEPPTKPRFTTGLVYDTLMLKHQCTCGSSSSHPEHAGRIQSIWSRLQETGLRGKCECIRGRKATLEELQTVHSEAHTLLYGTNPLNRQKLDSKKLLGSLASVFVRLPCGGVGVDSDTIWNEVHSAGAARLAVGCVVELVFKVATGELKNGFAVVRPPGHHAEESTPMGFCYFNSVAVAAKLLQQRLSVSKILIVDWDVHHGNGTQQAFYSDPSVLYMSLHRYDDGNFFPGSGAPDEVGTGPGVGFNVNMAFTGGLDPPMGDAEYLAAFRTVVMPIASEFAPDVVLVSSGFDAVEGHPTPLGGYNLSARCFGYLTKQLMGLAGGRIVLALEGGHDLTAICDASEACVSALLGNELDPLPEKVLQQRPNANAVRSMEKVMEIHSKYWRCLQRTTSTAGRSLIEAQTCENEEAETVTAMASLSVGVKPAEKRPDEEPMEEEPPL
Sequence of HDAC1 (Q13547 whole entry): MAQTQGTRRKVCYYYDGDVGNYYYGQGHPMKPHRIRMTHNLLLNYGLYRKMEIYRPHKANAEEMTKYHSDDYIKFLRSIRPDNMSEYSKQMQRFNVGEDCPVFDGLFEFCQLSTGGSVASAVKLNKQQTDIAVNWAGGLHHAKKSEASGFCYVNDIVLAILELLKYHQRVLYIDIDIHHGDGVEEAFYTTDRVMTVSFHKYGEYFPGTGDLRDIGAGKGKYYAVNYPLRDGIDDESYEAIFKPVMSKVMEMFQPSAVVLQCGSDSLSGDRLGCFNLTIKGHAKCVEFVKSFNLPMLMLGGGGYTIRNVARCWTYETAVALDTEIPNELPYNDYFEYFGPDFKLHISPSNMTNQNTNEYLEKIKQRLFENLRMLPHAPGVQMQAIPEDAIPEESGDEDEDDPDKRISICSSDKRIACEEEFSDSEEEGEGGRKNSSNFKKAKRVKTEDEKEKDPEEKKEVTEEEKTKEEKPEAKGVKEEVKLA

Take `Cc1cc(C)cc(C(=O)NOCCCCCC(=O)NO)c1` [19i]: the cytotoxic concentration (CC50) was 790 nM in the series on UM-UC-3-LV; 740 nM in the series on UM-UC-3-HDAC4; 630 nM in the series with VM-CUB1-HDAC4; 950 nM with VM-CUB1-LV; ~1000 nM in series [1]. Besides, the “in vitro IC50 HDAC1” value at HDAC1 was “sub-micromolar”. At HDAC4, the “in vitro IC50 HDAC4” value was “nanomolar range”.
